The values below come from patent US8110682B2, “Preparation and use of compounds as aspartyl protease inhibitors” (Schering Corporation, priority 2005, dated 2012).

The target of this assay is T1, sproBACE1 (soluble human BACE1) (Homo sapiens, UniProt P56817).
T1 construct: sBACE1, corresponding to amino acids 1-454; myc (C); His (C); made in house; host or cells: Sf9 insect cells (baculovirus), secreted into medium
The assay is described as follows: BACE-1 peptide hydrolysis assay (HTRF, APPsw substrate). The settings on record: 7 nM sproBACE1, pH 5.0, 30° C. The class given is biochemical. The text has this:
A predicted soluble form of human BACE1 (sBACE1, corresponding to amino acids 1-454) is generated from the full length BACE1 cDNA (full length human BACE1 cDNA in pcDNA4/mycHisA construct; University of Toronto) by PCR using the advantage-GC cDNA PCR kit (Clontech, Palo Alto, Calif.). A HindIII/Pmel fragment from pcDNA4-sBACE1 myc/His is blunt ended using Klenow and subcloned into the Stu I site of pFASTBACI(A) (Invitrogen). A sBACE1mycHis recombinant bacmid is generated by transposition in DH10Bac cells(GIBCO/BRL). Subsequently, the sBACE1 mycHis bacmid construct is transfected into sf9 cells using CellFectin (Invitrogen, San Diego, Calif.) in order to generate recombinant baculovirus. […]
Proteins, are eluted from the Q-sepharose column with Buffer B (20 mM HEPES, pH 8.0, 500 mM NaCl). […] Peak protein fractions as determined by the Bradford Assay (Biorad, Calif.) are concentrated using a Centricon 30 concentrator (Millipore). sBACE1 purity is estimated to be ˜90% as assessed by SDS-PAGE and Commassie Blue staining. […]
IC50 determinations for inhibitors, (I), are determined by measuring the percent change of the relative fluorescence at 665 nm divided by the relative fluorescence at 620 nm, (665/620 ratio), in the presence of varying concentrations of I and a fixed concentration of enzyme and substrate.
In general terms: TR-FRET usually uses a lanthanide donor and a delayed reading to cut background.

T1 sequence (P56817 22-454): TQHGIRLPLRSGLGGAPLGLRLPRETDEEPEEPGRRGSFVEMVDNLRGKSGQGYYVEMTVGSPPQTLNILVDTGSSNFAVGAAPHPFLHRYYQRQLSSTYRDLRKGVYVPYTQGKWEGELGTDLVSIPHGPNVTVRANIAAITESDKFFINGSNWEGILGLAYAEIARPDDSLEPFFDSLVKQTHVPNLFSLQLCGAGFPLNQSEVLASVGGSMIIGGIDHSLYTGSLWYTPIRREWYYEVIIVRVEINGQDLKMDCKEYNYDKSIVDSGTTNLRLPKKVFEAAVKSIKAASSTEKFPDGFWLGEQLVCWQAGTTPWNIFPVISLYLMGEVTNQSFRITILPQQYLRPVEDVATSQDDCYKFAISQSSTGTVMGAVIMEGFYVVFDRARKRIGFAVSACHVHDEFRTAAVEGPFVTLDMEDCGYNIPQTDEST

The term Ki denotes the equilibrium dissociation constant of an inhibitor or competing ligand from its target. `CN1C(=N)NC(C)(c2cccc(-c3cc(Cl)cc(Cl)c3)c2)N(C)C1=O` (stereo not shown) [Example 7]: the Ki was found to be 1360 nM.
